Source: patent publication US20150119399A1, “BETA-CELL REPLICATION PROMOTING COMPOUNDS AND METHODS OF THEIR USE” (President and Fellows of Harvard College, priority 2012, published 2015)
“Also recorded” adds a separate entry of the source. Where two headings read alike, the source gives them in different places.

Key:
beta-cells = assay: beta-cell replication in dissociated rat islet cells (PDX-1/ki-67 imaging); type: cell-based; conditions: compound for 48 hours, relative to vehicle/DMSO control
Procedure: (§1) Rat islets were isolated and plated as previously described. In brief, rat islets were disassociated using 0.25% trypsin to obtain single cell suspension with occasional clusters of 2-3 cells. These cells were then plated in a 96-well format at a density of 80 k cells/well. The wells were pre-treated with conditioned media produced by the rat bladder carcinoma cell line 804G. After 48-hours, the cells were treated with compound at the indicated concentration or vehicle alone for 48 hours. The cells were then fixed and stained as previously described for the beta-cell marker PDX-1 and the replication marker ki-67. The beta-cell replication rate (the percentage of PDX-1^+ Cells that co-expressed ki-67) was quantified via automated imaging acquisition and analysis using a Cellomic ArrayScan. Each experimental was performed in replicas of four. p-values indicate a 2-tailed T-Test.
(§2) To quantify beta-cell replication rate, cells were identified as beta-cells if the contained both nuclear PDX-1 expression and cytoplasmic insulin staining. Replicating beta-cells were identified by the co-staining for ki-67. Alpha-cell replication was determined by determining the fraction of alpha-cells that co-expressed ki67. An alpha-cell was defined by the presence of cytoplasmic glucagon staining and the absence of nuclear PDX-1 staining. The fraction of dividing alpha-cells was determined by the proportion of alpha cells that co-expressed ki-67.

wild-type mice [1] = assay: glucose tolerance in wild-type mice; type: in vivo, mouse
[2] = tested on: diet-induced obesity (DIO) mice; assay: glucose tolerance in diet-induced obesity (DIO) mice; type: in vivo; conditions: diet-induced obesity (DIO) mouse model of human diabetes
[3] = plasma insulin levels in vivo after intraperitoneal glucose; conditions: 30 minutes after treatment and intraperitoneal (IP) delivery of glucose, compared to DMSO
wild-type mice [4] = assay: plasma GLP-1 levels in vivo; conditions: 30 minutes after treatment, 0.3 mg/kg Tadalafil, 0.25 mg/kg Dipyridamole, 0.45 mg/kg Vardenafil
GLP-1R signaling = assay: glucose tolerance via GLP-1R signaling; conditions: FIGS. 15A-15C
isolated rat islets = assay: in vitro islet insulin secretion assay, rat islets; conditions: for islet insulin secretion: isolated rat islets
alpha-cells = assay: alpha-cell replication in dissociated rat islet cells (glucagon/ki-67 imaging); type: cell-based; conditions: compound for 48 hours
Procedure: as §1, §2

human islets = assay: in vitro islet insulin secretion assay, human islets; type: cell-based
diabetic DB mice = assay: glucose tolerance in diabetic DB mice; type: in vivo, mouse; conditions: for glucose tolerance: compound by itself
recombinant PDE5 = recombinant PDE5 (Homo sapiens, UniProt O76074); conditions: in vitro selectivity assay using recombinant PDE
Description: Rows list the PDE inhibitors. Columns list the recombinant human PDE enzymes.

[5] = tested on: primary intestinal crypt culture; assay: endogenous GLP-1 secretion in primary intestinal crypt culture; conditions: compared to control
[6] = co-administered with DPP-4 inhibitor Sitagliptin, wild-type mice (FIG. 11), Tadalafil data not shown
[7] = wild-type mice, compound by itself
[8] = wild-type mice, in combination with Exendin-4

In the case of `CN1CC(=O)N2[C@H](c3ccc4c(c3)OCO4)c3[nH]c4ccccc4c3C[C@@H]2C1=O` [Tadalafil, (6R-trans)-6-(1,3-benzodioxol-5-yl)-2,3,6,7,12,12a-hexahydro-2-methyl-pyrazino[1′,2′:1,6]pyrido[3,4-b]indole-1,4-dione], the “beta-cell replication (percentage of PDX-1+ cells that co-expressed ki-67)” value (beta-cells) is reported as “did not increase beta-cell replication”, the “glucose tolerance / blood glucose levels” value (wild-type mice [1]; [6]) is reported as “act in concert with Sitagliptin to improve glucose tolerance and lower blood glucose levels” and the glucose tolerance (wild-type mice [1]; [7]) is reported as “improves glucose tolerance”. For the same compound, the “glucose tolerance / blood glucose levels” value (wild-type mice [1]; [8]) was “acts additively with Exendin-4 to lower glucose levels”, the glucose tolerance [2] was “improves glucose tolerance” and the plasma insulin levels [3] was “increased plasma insulin levels; also recorded: significantly increase plasma insulin levels”. The “plasma GLP-1 levels” value (wild-type mice [4]) was “significantly increase plasma GLP-1 levels”, the “glucose tolerance via GLP-1R signaling” value (GLP-1R signaling) was “improve glucose tolerance via GLP-1R signaling” and the islet insulin secretion (isolated rat islets) was “do not enhance islet insulin secretion; also recorded: Neither Tadalafil (FIG. 4A) nor Vardenafil (FIG. 4B) significantly enhanced insulin secretion”.
For `CN(C(=O)CCCOc1ccc2[nH]c(=O)ccc2c1)C1CCCCC1` [Cilostamide], the “beta-cell replication (percentage of PDX-1+ cells that co-expressed ki-67)” value (beta-cells) was “enhanced beta-cell replication” and the “alpha-cell replication (fraction of alpha-cells that co-expressed ki67)” value (alpha-cells) was “enhanced alpha-cell replication”.
With `COc1cc2c(cc1OC)-c1c/c(=N\c3c(C)cc(C)cc3C)n(C)c(=O)n1CC2` [Trequinsin] the “beta-cell replication (percentage of PDX-1+ cells that co-expressed ki-67)” value (beta-cells) was “enhanced beta-cell replication” and the “alpha-cell replication (fraction of alpha-cells that co-expressed ki67)” value (alpha-cells) was “enhanced alpha-cell replication”.
In the case of `OCCN(CCO)c1nc(N2CCCCC2)c2nc(N(CCO)CCO)nc(N3CCCCC3)c2n1` [Dipyridamole, 2,6-bis-(diethanolamino)-4,8-dipiperidino-(5,4-d)-pyrimidine], the “beta-cell replication (percentage of PDX-1+ cells that co-expressed ki-67)” value (beta-cells) is reported as “enhanced beta-cell replication; also recorded: double replication effect”, the “beta-cell replication (percentage of PDX-1+ cells that co-expressed ki-67)” value (beta-cells; listed as Dioyridamole) is reported as “enhanced beta-cell replication” and the “alpha-cell replication (fraction of alpha-cells that co-expressed ki67)” value (alpha-cells) is reported as “does not; also recorded: did not”. For the same compound, the islet insulin secretion (human islets) was “significantly enhanced insulin secretion”, the “effect of Exendin-4 on glucose-stimulated insulin secretion” value (human islets; in combination with Exendin-4) was “enhances the effect of Exendin-4 on glucose-stimulated insulin secretion” and the islet insulin secretion (human islets; listed as dipyridamole) was “enhances insulin secretion”. For the same compound, the “glucose tolerance / blood glucose levels” value (wild-type mice [1]; [6]) was “acts in concert with dipeptidyl peptidase-4 (DPP-4) inhibitor Sitagliptin to improve glucose tolerance; also recorded: act in concert with Sitagliptin to improve glucose tolerance and lower blood glucose levels”, the glucose tolerance (wild-type mice [1]; [7]) was “enhances glucose tolerance” and the glucose tolerance (wild-type mice [1]; wild-type mice, compound by itself, listed as dipyridamole) was “improves glucose tolerance”. For the same compound, the “glucose tolerance / blood glucose levels” value (wild-type mice [1]; [8]) was “enhances glucose tolerance; also recorded: acts additively with Exendin-4 to lower blood glucose levels”, the “glucose tolerance / blood glucose levels” value (wild-type mice [1]; wild-type mice, in combination with Exendin-4, listed as dipyridamole) was “enhances glucose tolerance” and the glucose tolerance (wild-type mice [1]; wild-type mice, oral administration) was “improves glucose tolerance”. The glucose tolerance (diabetic DB mice) was “enhances glucose tolerance”, the glucose tolerance (diabetic DB mice; listed as dipyridamole) was “improves glucose tolerance” and the “glucose tolerance / blood glucose levels” value (diabetic DB mice; in combination with Exendin-4) was “enhances glucose tolerance; also recorded: acts additively with Exendin-4 to lower blood glucose levels”. For the same compound, the “glucose tolerance / blood glucose levels” value (diabetic DB mice; in combination with Exendin-4, listed as dipyridamole) was “enhances glucose tolerance”, the “inhibition of PDE5 (inhibitor class)” value (recombinant PDE5) was “effective inhibitor (the inhibitor exhibits at least 50% inhibition of enzymatic activity in an in vitro selectivity assay using a recombinant PDE)” and the “plasma GLP-1 levels” value (wild-type mice [4]) was “significantly increase plasma GLP-1 levels”. For the same compound, the “glucose tolerance via GLP-1R signaling” value (GLP-1R signaling) was “improve glucose tolerance via GLP-1R signaling”, the islet insulin secretion (isolated rat islets) was “significantly enhanced insulin secretion” and the islet insulin secretion (isolated rat islets; listed as dipyridamole) was “enhances insulin secretion”. The “effect of Exendin-4 on glucose-stimulated insulin secretion” value (isolated rat islets; rat islets, in combination with Exendin-4) was “enhances the effect of Exendin-4 on glucose-stimulated insulin secretion” and the “endogenous GLP-1 secretion” value [5] was “at least about twice”.
With `COc1cc(-c2ccc(=O)[nH]n2)ccc1OC(F)F` [Zardaverine, 6-[4-(Difluoromethoxy)-3-methoxyphenyl]-3(2H)-pyridazinone] the “beta-cell replication (percentage of PDX-1+ cells that co-expressed ki-67)” value (beta-cells) was “enhanced beta-cell replication” and the “alpha-cell replication (fraction of alpha-cells that co-expressed ki67)” value (alpha-cells) was “enhanced alpha-cell replication”.
